The values that follow come from paper PMC8414802, “Hair Cell Generation in Cochlear Culture Models Mediated by Novel γ-Secretase Inhibitors” (Frontiers in Cell and Developmental Biology, 2021).

The test has as its system hair cell genes Atoh1, Pou4f3, Myo7a in OC explants. Put plainly: Hair cell gene expression in organ of Corti explants (RT-PCR). Conditions: 4 days, vs DMSO. Format: cell-based, mouse. As for the experimental part: OC explants were isolated from postnatal day 2 (P2) Wistar rats, P0-P2 mice (Lgr5-GFP or Atoh1-nGFP mice). Dissection of the cochlea under a stereomicroscope (Nikon SMZ800, Japan) allowed OC separation from stria vascularis and modiolus, and the sensory epithelium was plated with hair cells facing up on Cell-Tak (Corning, United States)-coated transwell-clear inserts (6-well format, 0.4 μm pore, Corning, United States). Dissection medium was exchanged for 1.5 ml full otic medium supplemented with 10% FBS (Invitrogen) and 0.01% Ampicillin (Sigma), added under the insert membrane, maintaining the OC under a thin film of medium during culture at 37°C. 5-ethyl-2′-deoxyuridine (EdU, 5 μM, Life Technologies) was added directly in the medium when indicated.
Concentrations of small molecule GSIs {LY411575, CPD3, CPD8, DAPT (N-[N-(3,5-Difluorophenacetyl)-L-alanyl]-S-phenylglycine t-butyl ester; Sigma)} were prepared in DMSO and are indicated in Figure Legends and Results. DMSO included as Control. Treatment groups were assigned randomly.
Cells or tissue were lysed using RLT Lysis Buffer (Qiagen) and high purity RNA was prepared on the MagNA Pure instrument using MagNA Pure 96 Cellular RNA LV Kit (Roche). Reagents from Thermo Fisher were used for cDNA synthesis by reverse transcription using random hexamers. Resulting cDNA was RNAse H treated and amplified by TaqMan GEX mastermix and PCR primers and probes for human ATOH1 (Hs00944192_s1) and TBP (Hs00427620_m1), mouse Tbp (Mm00446971_m1), Atoh1 (Mm00476035_s1), Hes5 (Mm00439311_g1), Pouf4s (Mm04213795_s1), and Myo7a (Mm01274015_m1) on the Applied Biosystems QuantStudio 7 Flex Real-Time PCR System. Normalized to Tbp, relative gene expression fold-change was quantified and compared between experimental and control conditions by ΔΔCt calculation.
FIGURE 2 GSI-mediated induction of hair cell gene expression and de novo generation of hair cells in the neonatal cochlear sensory epithelium. (A) Gene expression changes of Atoh1, Pou4f3, and Myo7a in response to Notch pathway inhibition by CPD3 (solid lines, triangles) and CPD8 (dashed lines, open square) in otic spheres. Gene expression is reported as fold-change relative to carrier control-treated (DMSO, 0.05%). (n = 9–12). […] (B) Gene expression analysis for the hair cell genes Atoh-1, Myo7a, and Pou4f3. DMSO control n = 13, CPD3 n = 12, LY411575 n = 9, DAPT n = 6 from 2–4 independent experiments. OC explants were cultured for 4 days with/without GSI prior to lysis and analysis. One-way ANOVA with Dunnett’s multiple comparison test, each condition compared to DMSO control. (*p < 0.05, **p < 0.005, ***p < 0.001). (C) Cell counts of Atoh1 positive HCs (OHC left, IHC right) in the mouse cochlear sensory epithelium in the mid-apex region after 7 days in culture with different γ-secretase inhibitors. One-way ANOVA Dunnett’s multiple comparison test, each condition compared to DMSO control. (*p < 0.05; n = 3–5 independent experiments). (D) Quantification of Pou4f3 positive HCs (OHC left, IHC right) in the cochlear sensory epithelium from P2 rats in the apical domain after 8 days in culture with different γ-secretase inhibitors. One-way ANOVA with Dunnett’s multiple comparison test, each condition compared to DMSO control (*p < 0.05, n = 3). Representative immunohistological images of the apical domain after 8 days incubation (inset). scale bar = 20 μm. (E) Quantification of Pou4f3 positive OHCs in the apex, middle and basal domain of organ of Corti explants from rats after 4 days of CPD3 treatment compared to DMSO (*p < 0.05, unpaired t-test) n = 4–6 explants from 2 independent experiments.

With `COc1ccc2c(c1)N1CCC(C)(C)C1=CC(=O)[C@H]2NC(=O)[C@H](C)NC(=O)CCC(F)(F)F` [CPD3], where the note is “1 μM”, the Atoh1 expression was found to be 3.7 ± 0.54 fold, the Myo7a expression is 1.73 ± 0.33 fold and the Pou4f3 expression stood at 2.04 ± 0.35 fold.
For the setting “5 μM”, `C[C@H](NC(=O)[C@@H](O)c1cc(F)cc(F)c1)C(=O)N[C@@H]1C(=O)N(C)c2ccccc2-c2ccccc21` [LY411575] displayed an Atoh1 expression of 4.34 ± 0.82 fold, a Myo7a expression of 1.42 ± 0.31 fold and a Pou4f3 expression of 1.46 ± 0.26 fold.
